# In patent US5688946A, “Amino acid derivatives having renin inhibiting activity” (Hoffmann La Roche Inc., priority 1989, dated 1997):
# Counter-ions that a name gives are not always drawn.
# Biological target: T1, human renin (Homo sapiens, UniProt P00797)
# T1 sequence (P00797 67-406): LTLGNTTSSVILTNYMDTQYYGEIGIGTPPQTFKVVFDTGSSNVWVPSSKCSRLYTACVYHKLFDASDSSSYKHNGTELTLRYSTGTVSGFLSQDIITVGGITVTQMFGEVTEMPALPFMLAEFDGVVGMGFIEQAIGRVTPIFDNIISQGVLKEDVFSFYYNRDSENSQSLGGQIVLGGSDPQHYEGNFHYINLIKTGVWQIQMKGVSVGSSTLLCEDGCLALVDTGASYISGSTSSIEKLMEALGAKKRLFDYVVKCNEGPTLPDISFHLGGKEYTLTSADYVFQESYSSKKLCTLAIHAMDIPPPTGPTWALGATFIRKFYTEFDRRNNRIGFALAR
# Assay: In vitro test with pure human renin
# Format: biochemical
# Details: human tetradecapeptide renin substrate (hTD), pH 7.4, three hours at 37° C., angiotensin I via RIA
# Experimental: In vitro test with pure human renin
# The test is carried out in Eppendorf test tubes. The incubation mixture consists of (1) 100 μl of human renin in buffer A (0.1M sodium phosphate solution, pH 7.4, containing 0.1% bovine serum albumin, 0.1% sodium azide and 1 mM ethylenediaminetetraacetic acid), sufficient for a renin activity of 2-3 ng of angiotensin I/ml/hr.; (2) 145 μl of buffer A; (3) 30 μl of 10 μM human tetradecapeptide renin substrate (hTD) in 10 mM hydrochloric acid; (4) 15 μl of dimethyl sulphoxide with or without inhibitor and (5) 10 μl of a 0.03 molar solution of hydroxyquinoline sulphate in water.
# The samples are incubated for three hours at 37° C. or 4° C. in triplicate. 2×100 μl samples per experimental test tube are used in order to measure the production of angiotensin I via RIA (standard radioimmunoassay; clinical assay solid phase kit). Cross reactivities of the antibody used in the RIA are: angiotensin I 100%; angiotensin II 0.0013%; hTD (angiotensin I-Val-Ile-His-Ser-OH) 0.09%. The production of angiotensin I is determined by the difference between the experiment at 37° C. and that at 4° C.
# The following controls are carried out:
# (a) Incubation of hTD samples without renin and without inhibitor at 37° C. and 4° C. The difference between these two values gives the base value of the angiotensin I production.
# (b) Incubation of hTD samples with renin, but without inhibitor at 37° C. and 4° C. The difference between these values gives the maximal value of angiotensin I production.
# In each sample the base value of the angiotensin I production is subtracted from the angiotensin I production which is determined. The difference between the maximal value and the base value gives the value of the maximal substrate hydrolysis (=100%) by renin.
# The results are given as IC50 values which denote that concentration of the inhibitor at which the enzymatic activity is inhibited by 50%. The IC50 values are determined from a linear regression curve from a logit-log plot.
row,Compound,IC50
1,"CC(C)(CN)S(=O)(=O)C[C@@H](Cc1ccccc1)C(=O)N[C@@H](Cc1c[nH]cn1)C(=O)N[C@@H](CC1CCCCC1)[C@@H](O)[C@@H](O)C1CC1 [A, (S)-α-[(S)-α-[[[(2-Amino-1,1-dimethylethyl)sulphonyl]methyl]hydrocinnamamido]-N-[(1S,2R,3S)-1-(cyclohexylmethyl)-3-cyclopropyl-2,3-dihydroxypropyl]imidazole-4-propionamidedihydrochloride]",1.8 nM
2,"CC(C)(N)CS(=O)(=O)C[C@@H](Cc1ccccc1)C(=O)N[C@@H](Cc1c[nH]cn1)C(=O)N[C@@H](CC1CCCCC1)[C@@H](O)[C@@H](O)C1CC1 [B, (S)-α-[(S)-α-[[(2-Amino-2-methylpropyl)sulphonyl]methyl]hydrocinnamamido]-N-[(1S,2R,3S)-1-(cyclohexylmethyl)-3-cyclopropyl-2,3-dihydroxypropyl]imidazole-4-propionamide diacetate]",17 nM
3,"O=C(N[C@@H](CC1CCCCC1)[C@@H](O)[C@@H](O)C1CC1)[C@H](Cc1c[nH]cn1)NC(=O)[C@H](Cc1ccccc1)OC(=O)N1CCCCC1 [D, (S)-α-[[(S)-1-[[(1S,2R,3S)-1-(Cyclohexylmethyl)-3-cyclopropyl-2,3-dihydroxypropyl]carbamoyl]-2-imidazol-4-ylethyl]carbamoyl]phenethyl 1-piperidinecarboxylate]",1.2 nM
4,"CC(C)(C)S(=O)(=O)C[C@@H](Cc1ccccc1)C(=O)N[C@@H](Cc1c[nH]cn1)C(=O)N[C@@H](CC1CCCCC1)[C@@H](O)[C@@H](F)C1CC1 [E, (S)-α-[(S)-α-[(tert-Butylsulphonyl)methyl]hydrocinnamamido]-N-[(1S,2R,3S)-1-(cyclohexylmethyl)-3-cyclopropyl-3-fluoro-2-hydroxypropyl]imidazole-4-propionamide]",2.3 nM
5,"O=C(N[C@@H](Cc1c[nH]cn1)C(=O)N[C@@H](CC1CCCCC1)[C@@H](O)[C@@H](O)C1CC1)c1cc2ccccc2[nH]1 [F, N-[(S)-1-[[(1S,2R,3S)-1-(Cyclohexylmethyl)-3-cyclopropyl-2,3-dihydroxypropyl]carbamoyl]-2-imidazol-4-ylethyl]indole-2-carboxamide]",21 nM
